The compounds below were run against SARS2 coronavirus 3CL protease (Severe acute respiratory syndrome coronavirus 2, UniProt P0DTD1) (assay: SARS2 Coronavirus 3CL Protease Assay (FRET)). Details: 5 nM protease pre-incubated with compound 30 minutes; 15 uM peptide substrate; 4 h room temperature; read-out: FRET Potency (nM); IC50 values in the SARS2 3CLPro FRET assay.
Type: biochemical
Description: The enzymatic activity of SARS2 coronavirus 3CL protease was determined in a FRET (fluorescence resonance energy transfer)-based assay measuring the cleavage of a peptide substrate by recombinantly expressed and purified enzyme. Cleavage of the peptide SEQ ID NO: 1 (CPC Scientific) by SARS2 3CL protease was measured in reaction buffer (50 mM Hepes pH 7.5, 0.01% Triton X-100, 0.01% BSA, 2 mM DTT). […] Room temperature reactions (4 h) were quenched by addition of a high dose of inhibitor and read on an appropriate plate reader (excitation wavelength=495 nm, emission wavelength=520 nm). Data were analyzed by a standard 4 parameter fit to determine IC50 values.

| Compound | IC50 [nM] |
| --- | --- |
| CNC(=O)C(=O)[C@H](CCC(C)(F)F)NC(=O)c1cc(Cl)ccc1NC(=O)C1CCc2scnc21 (stereo partly drawn) [Example 9, N-[4-chloro-2-[[(1S)-4,4-difluoro-1-[2-(methylamino)-2-oxo-acetyl]pentyl]carbamoyl]phenyl]-5,6-dihydro-4H-cyclopenta[d]thiazole-4-carboxamide] | 7 |
| CNC(=O)C(=O)[C@H](CCC(C)(F)F)NC(=O)c1cc(Cl)ccc1NC(=O)c1cncc(C#N)c1 [Example 51, N-[4-chloro-2-[[(1S)-4,4-difluoro-1-[2-(methylamino)-2-oxo-acetyl]pentyl]carbamoyl]phenyl]-5-cyano-pyridine-3-carboxamide] | 15.1 |
| CNC(=O)C(=O)[C@H](CCC(C)(F)F)NC(=O)c1cc(C#N)ccc1NC(=O)C12CC(C(F)(F)F)(C1)C2 [Example 37, N-[4-cyano-2-[[(1S)-4,4-difluoro-1-[2-(methylamino)-2-oxo-acetyl]pentyl]carbamoyl]phenyl]-3-(trifluoromethyl)bicyclo[1.1.1] pentane-1-carboxamide] | 31.1 |
| CNC(=O)C(=O)[C@H](CCC(C)(F)F)NC(=O)c1cc(Cl)cnc1NC(=O)C12CC(C(F)(F)F)(C1)C2 [Example 2, (S)-5-chloro-N-(6,6-difluoro-1-(methylamino)-1,2-dioxoheptan-3-yl)-2-(3-(trifluoromethyl)bicyclo[1.1.1]pentane-1-carboxamido)nicotinamide] | 11.6 |
| CC(F)(F)CC[C@H](NC(=O)c1cc(Cl)ccc1NC(=O)c1ccnc(C(F)(F)F)c1)C(=O)C(N)=O [Example 7, (S)—N-(2-((1-amino-6,6-difluoro-1_2-dioxoheptan-3-yl)carbamoyl)-4-chlorophenyl)-2-(trifluoromethyl)isonicotinamide] | 18 |
| CNC(=O)C(=O)[C@H](CCC(C)(F)F)NC(=O)c1cc(Cl)ccc1NC(=O)C1(C(F)(F)F)CC1 [Example 20, 5-chloro-N-[(1S)-4,4-difluoro-1-[2-(methylamino)-2-oxo-acetyl]pentyl]-2-[[1-(trifluoromethyl)cyclopropane-carbonyl]amino]benzamide] | 11.6 |
| CNC(=O)C(=O)[C@H](CCC(C)(F)F)NC(=O)c1cc(Cl)ccc1NC(=O)c1cccc(C(F)(F)F)n1 [Example 17, N-[4-chloro-2-[[(1S)-4,4-difluoro-1-[2-(methylamino)-2-oxo-acetyl]pentyl]carbamoyl]phenyl]-6-(trifluoromethyl)pyridine-2-carboxamide] | 8.7 |
| CNC(=O)C(=O)[C@H](CCC(C)(F)F)NC(=O)c1cc(Cl)ccc1NC(=O)C1CC12CC2 (single isomer, unassigned) [Example 33] | 21.5 |
| CNC(=O)C(=O)[C@H](CCC(C)(F)F)NC(=O)c1cc(Cl)ccc1NC(=O)C1CN(C)C1 [Example 50, N-[4-chloro-2-[[(1S)-4,4-difluoro-1-[2-(methylamino)-2-oxo-acetyl]pentyl]carbamoyl]phenyl]-1-methyl-azetidine-3-carboxamide] | 21.8 |
| CNC(=O)C(=O)[C@H](CCC(C)(F)F)NC(=O)c1cc(Cl)ccc1NC(=O)C1CC12CCOCC2 (stereo partly drawn) [Example 26, N-[4-chloro-2-[[(1S)-4,4-difluoro-1-[2-(methylamino)-2-oxo-acetyl]pentyl]carbamoyl]phenyl]-6-oxaspiro[2.5]octane-2-carboxamide] | 15.1 |
| CNC(=O)C(=O)[C@H](CCC(C)(F)F)NC(=O)c1cc(F)cnc1NC(=O)c1cccc(C(F)(F)F)c1 [Example 18, N-[(1S)-4,4-difluoro-1-[2-(methylamino)-2-oxo-acetyl]pentyl]-5-fluoro-2-[[3-(trifluoromethyl)benzoyl]amino]pyridine-3-carboxamide] | 9.8 |
| CNC(=O)C(=O)[C@H](CCC(C)(F)F)NC(=O)c1cc(Cl)ccc1NC(=O)C12CC(C(F)(F)F)(C1)C2 [Example 22, N-[4-chloro-2-[[(1S)-4,4-difluoro-1-[2-(methylamino)-2-oxo-acetyl]pentyl]carbamoyl]phenyl]-3-(trifluoromethyl)bicyclo[1.1.1] pentane-1-carboxamide] | 13 |
| CNC(=O)C(=O)[C@H](CCC(C)(F)F)NC(=O)c1cc(Cl)ccc1NC(=O)C1CC12CCOCC2 (stereo partly drawn) [Example 11, N-[4-chloro-2-[[(1S)-4,4-difluoro-1-[2-(methylamino)-2-oxo-acetyl]pentyl]carbamoyl]phenyl]-6-oxaspiro[2.5]octane-2-carboxamide] | 7.7 |
| CNC(=O)C(=O)[C@H](CCC(C)(F)F)NC(=O)c1cc(Cl)ccc1NC(=O)OC [Example 49, methyl N-[4-chloro-2-[[(1S)-4,4-difluoro-1-[2-(methylamino)-2-oxo-acetyl]pentyl]carbamoyl]phenyl]carbamate] | 7.1 |
| CNC(=O)C(=O)[C@H](CCC(C)(F)F)NC(=O)c1cc(Cl)cnc1NC(=O)c1cccc(F)c1 [Example 24, 5-chloro-N-[(1S)-4,4-difluoro-1-[2-(methylamino)-2-oxo-acetyl]pentyl]-2-[(3-fluorobenzoyl)amino]pyridine-3-carboxamide] | 14 |
| CNC(=O)C(=O)[C@H](CCC(C)(F)F)NC(=O)c1cc(F)ccc1NC(=O)C1(C(F)(F)F)CC1 [Example 42, N-[(1S)-4,4-difluoro-1-[2-(methylamino)-2-oxo-acetyl]pentyl]-5-fluoro-2-[[1-(trifluoromethyl)cyclopropane-carbonyl]amino]benzamide] | 47 |
| CNC(=O)C(=O)[C@H](CCC(C)(F)F)NC(=O)c1cc(Cl)ccc1NC(=O)C1CC1C(F)(F)F (stereo partly drawn) [Example 47, 5-chloro-N-[(1S)-4,4-difluoro-1-[2-(methylamino)-2-oxo-acetyl]pentyl]-2-[[2-(trifluoromethyl)cyclopropane-carbonyl]amino]benzamide] | 20.5 |
| Cc1cnc(NC(=O)c2cccc(C(F)(F)F)c2)c(C(=O)N[C@@H](CCC(C)(F)F)C(=O)C(=O)NC2CC2)c1 [Example 45, N-[(1S)-1-[2-(cyclopropylamino)-2-oxo-acetyl]-4,4-difluoro-pentyl]-5-methyl-2-[[3-(trifluoromethyl)benzoyl]amino]pyridine-3-carboxamide] | 76.2 |
| CNC(=O)C(=O)[C@H](CCC(C)(F)F)NC(=O)c1cc(Cl)cnc1NC(=O)c1cccc(C(F)(F)F)c1 [Example 21, 5-chloro-N-[(1S)-4,4-difluoro-1-[2-(methylamino)-2-oxo-acetyl]pentyl]-2-[[3-(trifluoromethyl)benzoyl]amino]pyridine-3-carboxamide] | 11.7 |
| CNC(=O)C(=O)[C@H](CCC(C)(F)F)NC(=O)c1cc(Cl)ccc1NC(=O)[C@@H]1CCc2nccc(=O)n21 [Example 25, (6S)-N-[4-chloro-2-[[(1S)-4,4-difluoro-1-[2-(methylamino)-2-oxo-acetyl]pentyl]carbamoyl]phenyl]-4-oxo-7,8-dihydro-6H-pyrrolo[1,2-a]pyrimidine-6-carboxamide] | 14.8 |
| CNC(=O)C(=O)[C@H](CCC(C)(F)F)NC(=O)c1cc(Cl)ccc1NC(=O)C(C)c1cscn1 (stereo partly drawn) [Example 10, 5-chloro-N-[(1S)-4,4-difluoro-1-[2-(methylamino)-2-oxo-acetyl]pentyl]-2-(2-thiazol-4-ylpropanoylamino)benzamide] | 7 |
| CNC(=O)C(=O)[C@H](CCC(C)(F)F)NC(=O)c1cc(Cl)cnc1NC(=O)C1(C(F)(F)F)CC1 [Example 36, 5-chloro-N-[(1S)-4,4-difluoro-1-[2-(methylamino)-2-oxo-acetyl]pentyl]-2-[[1-(trifluoromethyl)cyclopropane-carbonyl]amino]pyridine-3-carboxamide] | 24.4 |
